Laboratory results taken from the supplement of paper PMC3974653.
Several values for one entry are separate records, joined by “and”; a condition that tells them apart may be missing. Identical values can stand only once. Counter-ions that a name gives are not always drawn.

What was measured:
Settings in all cases: (24 or 48 h)
[1] = test system: MTT (mouse pheochromocytoma); test: IC50 of cell viability (ATP content); AC50 where efficacy is positive
[2] = test system: MTT (mouse pheochromocytoma); test: efficacy (maximal response) relative to doxorubicin = -100% and DMSO = 0%; higher = less inhibition of viability
[3] = test system: MTT (mouse pheochromocytoma); test: IC50 of cell viability (ATP content)
In short: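 The IC50 was fitted with a four-parameter logistic equation to normalised CellTiter-Glo ATP luminescence from MTT mouse pheochromocytoma cells. These cells, in white 1536-well plates, had been treated for 24 or 48 hrs with library compounds at 8 final concentrations between 0.5 nM and 46 µM, and luminescence was read after 15 minutes. Positive-control wells served as 100% and DMSO wells as 0%.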

SMILES	IC50 of cell viability [1]	efficacy [2]	IC50 of cell viability [3] [µM]
CC(=O)Nc1ccc(NC(=S)NC(=O)c2ccc(C(C)(C)C)cc2)cc1	2.66 µM	-56%	–
Nc1ncn(C2C[C@H](O)[C@@H](CO)O2)c(=O)n1 (some centres undefined)	0.0668 µM	-51.6%	–
O=C(CCl)c1ccc(Cl)cc1Cl [2,2',4'-Trichloroacetophenone]	8.63 µM and 3.76 µM	-84.4% and -71.5%	–
F\C1=C\NC(=O)NC1=O [5-Fluorouracil]	11.9 µM	-67.4%	–
Sc1ncnc2[nH]cnc12 [6-Mercaptopurine monohydrate]	21.1 µM	-78.1%	–
NC/1=N/C(S)C/2\N=C/NC2=N1 (centres undefined) [6-Thioguanine (6-TG)]	21.1 µM	-78.6%	–
Cl.Nc1c2ccccc2nc2ccccc12.O [9-Aminoacridine HCl H2O]	21.1 µM	-110%	–
C=CCNC1=C2C[C@@H](C)C[C@H](OC)[C@H](O)[C@@H](C)/C=C(\C)[C@H](OC(N)=O)[C@@H](OC)C=C/C=C(\C)C(=O)NC(=CC1=O)C2=O [17-Allylamino-geldanamycin]	4.22 µM	-80.6%	–
Cl.CC(C)(C)[C@]1(O)CC[N@@]2C[C@H]3C4=C(CCC5=CC=CC(=C35)[C@@H]2C1)C=CC=C4 [(?)-Butaclamol hydrochloride]	21.1 µM	-70.8%	–
CC[C@@]1(O)C[C@H](O[C@H]2C[C@@H](N(C)C)[C@@H](O[C@H]3C[C@@H](O)[C@@H](O[C@H]4CCC(=O)[C@@H](C)O4)[C@@H](C)O3)[C@@H](C)O2)c2c(cc3c(c2O)C(=O)c2c(O)cccc2C3=O)[C@H]1C(=O)OC [ACLARUBICIN HYDROCHLORIDE]	2.11 µM	-41.5%	–
Cc1cc(O)ccc1Cl [p-Chloro-m-cresol]	–	–	> 46
Nc1ccc(Cl)cc1 [p-Chloroaniline]	–	–	> 46
Oc1ccc(Cl)cc1 [p-Chlorophenol]	–	–	> 46
NC(Cc1ccc(Cl)cc1)C(=O)O (centres undefined) [p-Chlorophenylalanine]	–	–	> 46
Cc1ccc(O)cc1 [p-Cresol]	–	–	> 46
CC(C)(C)c1ccc(O)c(O)c1 [p-tert-Butylcatechol]	–	–	> 46
CCC(C)(C)c1ccc(O)cc1 [p-tert-Pentylphenol]	–	–	> 46
O=P(O)(O)O [phosphoric acid]	–	–	> 46
CC(C)n1nc(-c2cc3cc(O)ccc3[nH]2)c2c(N)ncnc21 [pp242]	–	–	> 46
OC(CCN1CCCCC1)(c1ccccc1)c1ccccc1 [pridinol]	–	–	> 46
OCCOCCN1CCN(CC1)C/2=N/C3=CC=CC=C3SC4=CC=CC=C24 [quetiapine]	–	–	> 46
CN1[C@@H]2C[C@H](OC(=O)[C@@H](CO)c3ccccc3)C[C@@H]1[C@H]1O[C@H]12 [scopolamine]	–	–	> 46
Nc1ccc([S+](=O)([O-])Nc2ncccn2)cc1.[Ag] [sulfadiazine]	–	–	> 46
Nc1ccc([S+](=O)([O-])Nc2cnc3ccccc3n2)cc1 [sulfaquinoxaline]	–	–	> 46
CC(C)(C)c1cc(O)ccc1O [tert-Butylhydroquinone]	–	–	> 46
CC(C)C(C)(C)C(C)(C)C(C)(C)S [tert-Dodecanethiol]	–	–	> 46
Cc1ccc(/C(=C\CN2CCCC2)c2ccccn2)cc1 [trans-TRIPROLIDINE]	–	–	> 46
COC[C@@H](c1ccc(C(F)(F)F)cc1)N1CCN(C2(C)CCN(C(=O)c3c(C)ncnc3C)CC2)C[C@@H]1C [vicriviroc maleate]	–	–	> 46
OCC(CO)NC1C[C@](O)(CO)[C@@H](O)[C@H](O)[C@H]1O (some centres undefined) [voglibose]	–	–	> 46
